Source: the kinase profiling compilation of Christmann-Franck et al. (2016)

Key:
Experiment in all cases: radiometric filter-binding kinase assay, Kinase HotSpot
Conditions in all cases: compound 0.5 µM; ATP 10 µM
AKT2 (human) = AKT2 (human) (UniProt P31751)
NEK9 (human) = NEK9 (human) (UniProt Q8TD19)
TGFBR1 (human) = TGFBR1 (human) (UniProt P36897)
HIPK3 (human) = HIPK3 (human) (UniProt Q9H422)
AURKC (human) = AURKC (human) (UniProt Q9UQB9)
CDK1 CCNA2 (human) = CDK1 CCNA2 (human) (UniProt P06493+P20248)
PAK7 (human) = PAK7 (human) (UniProt Q9P286)
GSK3A (human) = GSK3A (human) (UniProt P49840)
Chain of GSK3A (human) (P49840 whole entry, looked up): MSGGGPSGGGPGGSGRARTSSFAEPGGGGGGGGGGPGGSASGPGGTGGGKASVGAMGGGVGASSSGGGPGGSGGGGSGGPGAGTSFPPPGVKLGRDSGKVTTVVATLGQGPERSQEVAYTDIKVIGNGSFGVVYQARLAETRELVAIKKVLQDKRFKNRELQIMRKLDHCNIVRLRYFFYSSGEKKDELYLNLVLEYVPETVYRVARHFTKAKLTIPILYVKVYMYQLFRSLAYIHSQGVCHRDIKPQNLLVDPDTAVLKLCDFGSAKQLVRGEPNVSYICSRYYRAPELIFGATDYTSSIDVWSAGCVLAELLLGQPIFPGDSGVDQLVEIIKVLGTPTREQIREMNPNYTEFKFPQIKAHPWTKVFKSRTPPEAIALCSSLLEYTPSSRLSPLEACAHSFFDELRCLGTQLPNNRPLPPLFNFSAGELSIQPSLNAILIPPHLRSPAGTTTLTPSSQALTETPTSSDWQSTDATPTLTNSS

SLK (human) = SLK (human) (UniProt Q9H2G2)
CDK3 CCNE1 (human) = CDK3 CCNE1 (human) (UniProt Q00526+P24864)
Chain of CDK3 CCNE1 (human) (P24864 whole entry, looked up): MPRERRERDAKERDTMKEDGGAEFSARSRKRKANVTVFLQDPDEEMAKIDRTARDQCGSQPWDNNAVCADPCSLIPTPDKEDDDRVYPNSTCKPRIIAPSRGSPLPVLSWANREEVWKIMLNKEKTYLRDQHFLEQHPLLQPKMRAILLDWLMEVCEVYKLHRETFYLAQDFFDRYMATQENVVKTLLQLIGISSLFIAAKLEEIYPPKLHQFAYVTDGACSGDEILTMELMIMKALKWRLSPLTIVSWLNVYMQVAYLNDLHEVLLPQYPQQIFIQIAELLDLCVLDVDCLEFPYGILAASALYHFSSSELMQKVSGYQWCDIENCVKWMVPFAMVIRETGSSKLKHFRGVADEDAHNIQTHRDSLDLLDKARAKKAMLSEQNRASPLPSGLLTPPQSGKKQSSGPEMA
Chain of CDK3 CCNE1 (human) (Q00526 whole entry, looked up): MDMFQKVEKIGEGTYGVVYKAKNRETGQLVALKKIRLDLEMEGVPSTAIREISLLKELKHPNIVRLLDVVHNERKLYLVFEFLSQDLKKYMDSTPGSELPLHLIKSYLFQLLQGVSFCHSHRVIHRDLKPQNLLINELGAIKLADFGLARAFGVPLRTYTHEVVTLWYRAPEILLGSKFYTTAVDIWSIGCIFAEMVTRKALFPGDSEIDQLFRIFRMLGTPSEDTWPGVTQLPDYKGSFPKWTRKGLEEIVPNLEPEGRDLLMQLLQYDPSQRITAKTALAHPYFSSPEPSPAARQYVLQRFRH

CDK4 CCND3 (human) = CDK4 CCND3 (human) (UniProt P30281+P11802)
[1] = target: JAK1 JH1 catalytic (human) (UniProt P23458)
STK33 (human) = STK33 (human) (UniProt Q9BYT3)
CDK1 CCNB1 (human) = CDK1 CCNB1 (human) (UniProt P06493+P14635)
FRK (human) = FRK (human) (UniProt P42685)
MAP3K2 (human) = MAP3K2 (human) (UniProt Q9Y2U5)
MAP3K9 (human) = MAP3K9 (human) (UniProt P80192)
CHEK1 (human) = CHEK1 (human) (UniProt O14757)
MAP3K3 (human) = MAP3K3 (human) (UniProt Q99759)
Chain of MAP3K3 (human) (Q99759 whole entry, looked up): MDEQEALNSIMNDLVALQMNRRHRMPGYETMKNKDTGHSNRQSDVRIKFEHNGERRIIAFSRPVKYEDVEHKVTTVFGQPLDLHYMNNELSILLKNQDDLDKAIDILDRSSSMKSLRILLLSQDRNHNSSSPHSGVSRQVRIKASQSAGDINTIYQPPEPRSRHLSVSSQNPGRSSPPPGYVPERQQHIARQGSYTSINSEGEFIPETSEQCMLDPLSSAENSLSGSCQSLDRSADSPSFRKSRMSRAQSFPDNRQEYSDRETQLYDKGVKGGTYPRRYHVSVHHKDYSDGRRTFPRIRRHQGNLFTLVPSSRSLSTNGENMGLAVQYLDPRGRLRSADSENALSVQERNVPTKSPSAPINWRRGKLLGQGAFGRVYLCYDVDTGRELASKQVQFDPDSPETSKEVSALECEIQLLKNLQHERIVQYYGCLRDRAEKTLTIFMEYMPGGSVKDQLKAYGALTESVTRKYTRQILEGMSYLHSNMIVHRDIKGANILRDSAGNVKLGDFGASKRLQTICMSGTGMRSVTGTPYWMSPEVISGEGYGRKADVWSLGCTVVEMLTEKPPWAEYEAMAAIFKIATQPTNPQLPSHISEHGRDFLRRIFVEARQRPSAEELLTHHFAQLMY

MAPK12 (human) = MAPK12 (human) (UniProt P53778)
MAP4K2 (human) = MAP4K2 (human) (UniProt Q12851)
MAP3K11 (human) = MAP3K11 (human) (UniProt Q16584)
SRC (human) = SRC (human) (UniProt P12931)
Chain of SRC (human) (P12931 whole entry, looked up): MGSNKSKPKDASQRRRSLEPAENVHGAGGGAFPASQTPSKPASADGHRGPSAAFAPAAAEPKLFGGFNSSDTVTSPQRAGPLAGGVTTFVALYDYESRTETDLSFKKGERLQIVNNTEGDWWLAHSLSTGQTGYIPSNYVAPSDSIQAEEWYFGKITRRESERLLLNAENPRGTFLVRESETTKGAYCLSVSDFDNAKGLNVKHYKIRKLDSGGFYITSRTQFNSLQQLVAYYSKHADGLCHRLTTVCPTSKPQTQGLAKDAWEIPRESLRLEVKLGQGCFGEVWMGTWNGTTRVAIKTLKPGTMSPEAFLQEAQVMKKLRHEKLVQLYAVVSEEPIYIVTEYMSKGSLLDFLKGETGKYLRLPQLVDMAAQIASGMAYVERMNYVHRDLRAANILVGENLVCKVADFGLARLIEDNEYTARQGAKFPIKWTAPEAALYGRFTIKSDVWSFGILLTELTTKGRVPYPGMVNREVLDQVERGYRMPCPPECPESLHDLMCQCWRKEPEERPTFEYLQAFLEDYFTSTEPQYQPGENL

NTRK3 (human) = NTRK3 (human) (UniProt Q16288)
Chain of NTRK3 (human) (Q16288 whole entry, looked up): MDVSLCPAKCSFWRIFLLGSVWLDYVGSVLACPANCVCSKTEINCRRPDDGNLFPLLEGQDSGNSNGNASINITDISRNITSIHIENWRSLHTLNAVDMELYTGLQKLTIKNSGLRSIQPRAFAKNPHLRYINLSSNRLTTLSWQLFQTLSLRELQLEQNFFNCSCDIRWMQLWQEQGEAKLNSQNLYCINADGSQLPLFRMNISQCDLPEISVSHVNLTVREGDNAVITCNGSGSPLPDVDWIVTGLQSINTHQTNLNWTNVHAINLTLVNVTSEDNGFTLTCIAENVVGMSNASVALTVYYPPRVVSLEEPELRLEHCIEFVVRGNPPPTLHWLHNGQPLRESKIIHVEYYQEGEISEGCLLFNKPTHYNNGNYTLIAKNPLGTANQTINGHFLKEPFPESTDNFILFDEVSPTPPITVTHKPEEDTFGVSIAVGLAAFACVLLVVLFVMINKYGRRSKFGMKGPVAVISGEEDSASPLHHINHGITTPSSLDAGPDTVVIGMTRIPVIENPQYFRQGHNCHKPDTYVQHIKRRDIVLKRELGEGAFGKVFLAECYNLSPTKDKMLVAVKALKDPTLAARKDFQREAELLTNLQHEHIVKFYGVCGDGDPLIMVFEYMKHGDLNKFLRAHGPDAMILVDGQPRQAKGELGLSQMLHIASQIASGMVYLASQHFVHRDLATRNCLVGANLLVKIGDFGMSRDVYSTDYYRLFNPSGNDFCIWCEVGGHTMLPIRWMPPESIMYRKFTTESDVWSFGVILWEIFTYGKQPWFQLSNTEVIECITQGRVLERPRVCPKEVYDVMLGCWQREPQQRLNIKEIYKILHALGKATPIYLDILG

PIM2 (human) = PIM2 (human) (UniProt Q9P1W9)
TNK2 (human) = TNK2 (human) (UniProt Q07912)
CSK (human) = CSK (human) (UniProt P41240)
PIM3 (human) = PIM3 (human) (UniProt Q86V86)
STK24 (human) = STK24 (human) (UniProt Q9Y6E0)
NEK1 (human) = NEK1 (human) (UniProt Q96PY6)
CAMK4 (human) = CAMK4 (human) (UniProt Q16566)
HCK (human) = HCK (human) (UniProt P08631)
IRAK4 (human) = IRAK4 (human) (UniProt Q9NWZ3)
Chain of IRAK4 (human) (Q9NWZ3 whole entry, looked up): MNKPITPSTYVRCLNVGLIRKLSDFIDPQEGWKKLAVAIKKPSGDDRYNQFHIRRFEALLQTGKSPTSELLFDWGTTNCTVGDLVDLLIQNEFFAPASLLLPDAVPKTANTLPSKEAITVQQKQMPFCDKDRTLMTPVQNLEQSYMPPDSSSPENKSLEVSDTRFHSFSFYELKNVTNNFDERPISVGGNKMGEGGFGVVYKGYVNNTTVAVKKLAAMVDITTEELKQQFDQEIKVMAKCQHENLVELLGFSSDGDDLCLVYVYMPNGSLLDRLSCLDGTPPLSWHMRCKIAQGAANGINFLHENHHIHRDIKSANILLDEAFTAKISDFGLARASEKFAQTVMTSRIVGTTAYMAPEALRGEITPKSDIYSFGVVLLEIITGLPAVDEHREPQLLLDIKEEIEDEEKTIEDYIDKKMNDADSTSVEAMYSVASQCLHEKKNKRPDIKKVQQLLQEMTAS

MAP2K2 (human) = MAP2K2 (human) (UniProt P36507)
PRKX (human) = PRKX (human) (UniProt P51817)
PDGFRA (human) = PDGFRA (human) (UniProt P16234)
CAMK2G (human) = CAMK2G (human) (UniProt Q13555)
INSRR (human) = INSRR (human) (UniProt P14616)
WNK2 (human) = WNK2 (human) (UniProt Q9Y3S1)
TEK (human) = TEK (human) (UniProt Q02763)
FGR (human) = FGR (human) (UniProt P09769)
ADRBK1 (human) = ADRBK1 (human) (UniProt P25098)

Chain of HIPK3 (human) (Q9H422 whole entry, looked up): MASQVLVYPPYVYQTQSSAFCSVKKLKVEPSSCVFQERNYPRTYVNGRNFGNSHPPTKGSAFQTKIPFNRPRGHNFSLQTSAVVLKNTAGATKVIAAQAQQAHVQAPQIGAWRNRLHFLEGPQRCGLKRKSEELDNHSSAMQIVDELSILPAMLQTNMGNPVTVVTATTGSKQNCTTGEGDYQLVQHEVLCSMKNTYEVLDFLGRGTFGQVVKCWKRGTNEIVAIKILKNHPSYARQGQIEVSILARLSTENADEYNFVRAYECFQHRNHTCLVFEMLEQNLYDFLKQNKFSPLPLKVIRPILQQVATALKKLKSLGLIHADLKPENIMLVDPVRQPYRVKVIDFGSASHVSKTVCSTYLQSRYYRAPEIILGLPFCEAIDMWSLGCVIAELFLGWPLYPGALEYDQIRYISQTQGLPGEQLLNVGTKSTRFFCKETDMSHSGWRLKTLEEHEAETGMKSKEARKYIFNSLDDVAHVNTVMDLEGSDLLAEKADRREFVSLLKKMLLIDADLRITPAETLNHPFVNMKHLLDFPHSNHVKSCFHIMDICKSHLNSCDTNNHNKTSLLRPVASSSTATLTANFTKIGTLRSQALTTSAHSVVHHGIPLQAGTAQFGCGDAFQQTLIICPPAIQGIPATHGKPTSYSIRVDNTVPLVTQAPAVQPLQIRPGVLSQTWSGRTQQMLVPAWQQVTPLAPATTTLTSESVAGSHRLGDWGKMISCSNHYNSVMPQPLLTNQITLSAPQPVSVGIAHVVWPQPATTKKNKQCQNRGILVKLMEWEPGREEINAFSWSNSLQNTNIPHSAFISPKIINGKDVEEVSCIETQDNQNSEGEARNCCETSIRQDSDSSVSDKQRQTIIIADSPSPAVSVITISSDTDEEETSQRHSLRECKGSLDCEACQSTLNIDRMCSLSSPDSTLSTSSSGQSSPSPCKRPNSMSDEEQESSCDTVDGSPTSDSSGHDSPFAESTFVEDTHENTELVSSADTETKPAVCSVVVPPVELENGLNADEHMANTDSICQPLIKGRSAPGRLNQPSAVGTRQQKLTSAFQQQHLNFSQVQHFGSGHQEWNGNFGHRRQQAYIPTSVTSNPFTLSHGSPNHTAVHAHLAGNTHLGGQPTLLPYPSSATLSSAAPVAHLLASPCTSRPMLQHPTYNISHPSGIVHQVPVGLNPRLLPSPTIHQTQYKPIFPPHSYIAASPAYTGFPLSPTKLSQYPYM

CC[n+]1c(/C=C/N(C)c2ccccc2)n(-c2ccccc2)c2ccc(-c3nc4ccccc4s3)cc21
residual activity (AKT2 (human)): 99.6% | residual activity (NEK9 (human)): 108% | residual activity (TGFBR1 (human)): 102% | residual activity (HIPK3 (human)): 105% | residual activity (AURKC (human)): 91.3% | residual activity (CDK1 CCNA2 (human)): 98.8% | residual activity (PAK7 (human)): 98.6% | residual activity (GSK3A (human)): 103% | residual activity (SLK (human)): 101% | residual activity (CDK3 CCNE1 (human)): 92.2% | residual activity (CDK4 CCND3 (human)): 102% | residual activity [1]: 104% | residual activity (STK33 (human)): 89.4% | residual activity (CDK1 CCNB1 (human)): 105% | residual activity (FRK (human)): 97.1% | residual activity (MAP3K2 (human)): 90.3% | residual activity (MAP3K9 (human)): 98.3% | residual activity (CHEK1 (human)): 103% | residual activity (MAP3K3 (human)): 109% | residual activity (MAPK12 (human)): 105% | residual activity (MAP4K2 (human)): 103% | residual activity (MAP3K11 (human)): 102% | residual activity (SRC (human)): 94.5% | residual activity (NTRK3 (human)): 100% | residual activity (PIM2 (human)): 117% | residual activity (TNK2 (human)): 98% | residual activity (CSK (human)): 100% | residual activity (PIM3 (human)): 98.8% | residual activity (STK24 (human)): 99.2% | residual activity (NEK1 (human)): 102% | residual activity (CAMK4 (human)): 93.2% | residual activity (HCK (human)): 104% | residual activity (IRAK4 (human)): 173% | residual activity (MAP2K2 (human)): 88.5% | residual activity (PRKX (human)): 108% | residual activity (PDGFRA (human)): 95.2% | residual activity (CAMK2G (human)): 103% | residual activity (INSRR (human)): 101% | residual activity (WNK2 (human)): 112% | residual activity (TEK (human)): 96% | residual activity (FGR (human)): 94.1% | residual activity (ADRBK1 (human)): 87.5%

c1ccc(-c2n[nH]c3c2oc2ccccc23)cc1
residual activity (AKT2 (human)): 112% | residual activity (NEK9 (human)): 99% | residual activity (TGFBR1 (human)): 94.9% | residual activity (HIPK3 (human)): 80.7% | residual activity (AURKC (human)): 96.7% | residual activity (CDK1 CCNA2 (human)): 94.1% | residual activity (PAK7 (human)): 70.9% | residual activity (GSK3A (human)): 91.4% | residual activity (SLK (human)): 107% | residual activity (CDK3 CCNE1 (human)): 90% | residual activity (CDK4 CCND3 (human)): 101% | residual activity [1]: 104% | residual activity (STK33 (human)): 96.5% | residual activity (CDK1 CCNB1 (human)): 87.7% | residual activity (FRK (human)): 89.9% | residual activity (MAP3K2 (human)): 85.9% | residual activity (MAP3K9 (human)): 97.5% | residual activity (CHEK1 (human)): 117% | residual activity (MAP3K3 (human)): 94.7% | residual activity (MAPK12 (human)): 100% | residual activity (MAP4K2 (human)): 61.8% | residual activity (MAP3K11 (human)): 91.8% | residual activity (SRC (human)): 81.3% | residual activity (NTRK3 (human)): 42.7% | residual activity (PIM2 (human)): 104% | residual activity (TNK2 (human)): 85.8% | residual activity (CSK (human)): 92.6% | residual activity (PIM3 (human)): 117% | residual activity (STK24 (human)): 75.3% | residual activity (NEK1 (human)): 95.2% | residual activity (CAMK4 (human)): 93.7% | residual activity (HCK (human)): 111% | residual activity (IRAK4 (human)): 92.7% | residual activity (MAP2K2 (human)): 85.8% | residual activity (PRKX (human)): 79.8% | residual activity (PDGFRA (human)): 73.7% | residual activity (CAMK2G (human)): 93.3% | residual activity (INSRR (human)): 104% | residual activity (WNK2 (human)): 102% | residual activity (TEK (human)): 96.8% | residual activity (FGR (human)): 116% | residual activity (ADRBK1 (human)): 104%

O=C(Nc1cccc(Nc2nccc(Nc3cccc(C(F)(F)F)c3)n2)c1)C1CC1
residual activity (AKT2 (human)): 107% | residual activity (NEK9 (human)): 102% | residual activity (TGFBR1 (human)): 102% | residual activity (HIPK3 (human)): 104% | residual activity (AURKC (human)): 80.8% | residual activity (CDK1 CCNA2 (human)): 95.9% | residual activity (PAK7 (human)): 89.2% | residual activity (GSK3A (human)): 95% | residual activity (SLK (human)): 92.9% | residual activity (CDK3 CCNE1 (human)): 98.1% | residual activity (CDK4 CCND3 (human)): 103% | residual activity [1]: 74% | residual activity (STK33 (human)): 81.5% | residual activity (CDK1 CCNB1 (human)): 89.3% | residual activity (FRK (human)): 92.2% | residual activity (MAP3K2 (human)): 91.6% | residual activity (MAP3K9 (human)): 95.2% | residual activity (CHEK1 (human)): 96.6% | residual activity (MAP3K3 (human)): 97.9% | residual activity (MAPK12 (human)): 99.7% | residual activity (MAP4K2 (human)): 112% | residual activity (MAP3K11 (human)): 89.5% | residual activity (SRC (human)): 64.5% | residual activity (NTRK3 (human)): 77.3% | residual activity (PIM2 (human)): 112% | residual activity (TNK2 (human)): 66.5% | residual activity (CSK (human)): 97.4% | residual activity (PIM3 (human)): 106% | residual activity (STK24 (human)): 98.3% | residual activity (NEK1 (human)): 82.8% | residual activity (CAMK4 (human)): 97.9% | residual activity (HCK (human)): 102% | residual activity (IRAK4 (human)): 146% | residual activity (MAP2K2 (human)): 89.2% | residual activity (PRKX (human)): 94.6% | residual activity (PDGFRA (human)): 89.3% | residual activity (CAMK2G (human)): 108% | residual activity (INSRR (human)): 89.9% | residual activity (WNK2 (human)): 122% | residual activity (TEK (human)): 101% | residual activity (FGR (human)): 80.9% | residual activity (ADRBK1 (human)): 84.7%

CCC(=O)Nc1ccc2ncnc(Nc3cccc(Br)c3)c2c1
residual activity (AKT2 (human)): 102% | residual activity (NEK9 (human)): 105% | residual activity (TGFBR1 (human)): 101% | residual activity (HIPK3 (human)): 92.1% | residual activity (AURKC (human)): 102% | residual activity (CDK1 CCNA2 (human)): 87.9% | residual activity (PAK7 (human)): 91.6% | residual activity (GSK3A (human)): 98.2% | residual activity (SLK (human)): 90% | residual activity (CDK3 CCNE1 (human)): 86.5% | residual activity (CDK4 CCND3 (human)): 90.4% | residual activity [1]: 96.6% | residual activity (STK33 (human)): 94.1% | residual activity (CDK1 CCNB1 (human)): 89.5% | residual activity (FRK (human)): 66.8% | residual activity (MAP3K2 (human)): 76.1% | residual activity (MAP3K9 (human)): 92.7% | residual activity (CHEK1 (human)): 114% | residual activity (MAP3K3 (human)): 89.8% | residual activity (MAPK12 (human)): 103% | residual activity (MAP4K2 (human)): 90.5% | residual activity (MAP3K11 (human)): 97.1% | residual activity (SRC (human)): 93.6% | residual activity (NTRK3 (human)): 95.8% | residual activity (PIM2 (human)): 90.3% | residual activity (TNK2 (human)): 93.5% | residual activity (CSK (human)): 89.5% | residual activity (PIM3 (human)): 76.6% | residual activity (STK24 (human)): 102% | residual activity (NEK1 (human)): 76.9% | residual activity (CAMK4 (human)): 103% | residual activity (HCK (human)): 93% | residual activity (IRAK4 (human)): 79.8% | residual activity (MAP2K2 (human)): 85.1% | residual activity (PRKX (human)): 95.7% | residual activity (PDGFRA (human)): 107% | residual activity (CAMK2G (human)): 105% | residual activity (INSRR (human)): 98.4% | residual activity (WNK2 (human)): 107% | residual activity (TEK (human)): 91.2% | residual activity (FGR (human)): 93.2% | residual activity (ADRBK1 (human)): 112%
